From ChEMBL document CHEMBL4715760, “Balancing potency, metabolic stability and permeability in pyrrolopyrimidine-based EGFR inhibitors” (Eur J Med Chem, 2016)

Tests used:
[1] = target: Mitogen-activated protein kinase 1 (Homo sapiens) (UniProt P28482); assay: Inhibition of recombinant full length GST-tagged human MAPK1 expressed in Escherichia coli at 500 nM using Ser/Thr 03 as substrate incubated for 1 hr in presence of 100 uM ATP by Z'-LYTE assay relative to control
[2] = target: Epidermal growth factor receptor (Homo sapiens, UniProt P00533); assay: Inhibition of human EGFR using poly[Glu:Tyr] (4:1) as substrate in presence of [gamma33P]ATP by radiometric HotSpot assay
[3] = target: T1, Aurora kinase A (Homo sapiens) (UniProt O14965); assay: Inhibition of recombinant human full length His-tagged AURKA expressed in baculovirus expression system at 500 nM using Ser/Thr 01 as substrate incubated for 1 hr in presence of ATP at its Km concentration by Z'-LYTE assay relative to control
T1 sequence (whole entry): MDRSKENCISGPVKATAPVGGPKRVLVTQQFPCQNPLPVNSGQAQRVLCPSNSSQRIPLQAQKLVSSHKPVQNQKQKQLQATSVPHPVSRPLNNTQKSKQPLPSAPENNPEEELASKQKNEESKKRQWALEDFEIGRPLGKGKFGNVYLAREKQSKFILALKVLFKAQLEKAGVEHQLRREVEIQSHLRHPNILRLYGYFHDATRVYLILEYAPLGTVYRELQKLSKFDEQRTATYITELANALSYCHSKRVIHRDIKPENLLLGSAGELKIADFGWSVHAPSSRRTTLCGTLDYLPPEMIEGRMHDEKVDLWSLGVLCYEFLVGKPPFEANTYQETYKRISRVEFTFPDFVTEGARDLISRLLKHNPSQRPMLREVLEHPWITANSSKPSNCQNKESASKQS

[4] = target: Tyrosine-protein kinase ABL1 (Homo sapiens) (UniProt P00519); assay: Inhibition of recombinant full length human His-tagged ABL1 cytoplasmic domain expressed in baculovirus expression system at 500 nM using Tyr 02 peptide as substrate incubated for 1 hr in presence of ATP at its Km concentration by Z'-LYTE assay relative to control
[5] = target: Tyrosine-protein kinase Lyn (Homo sapiens) (UniProt P07948); assay: Inhibition of recombinant full length human His-tagged LYN-B expressed in baculovirus expression system at 500 nM using Tyr 02 as substrate incubated for 1 hr in presence of ATP at its Km concentration by Z'-LYTE assay relative to contro
[6] = target: Receptor tyrosine-protein kinase erbB-2 (Homo sapiens) (UniProt P04626); assay: Inhibition of recombinant human His-tagged ERBB2 (676 to 1255 residues) expressed in baculovirus expression system at 500 nM using Tyr 06 peptide as substrate incubated for 1 hr in presence of ATP at its Km concentration by Z'-LYTE assay relative to control
[7] = target: Tyrosine-protein kinase Lyn (Homo sapiens) (UniProt P07948); assay: Inhibition of recombinant full length human GST-tagged LYN-A expressed in insect cells at 500 nM using Tyr 02 as substrate incubated for 1 hr in presence of ATP at its Km concentration by Z'-LYTE assay relative to control
[8] = target: Tyrosine-protein kinase JAK2 (Homo sapiens) (UniProt O60674); assay: Inhibition of human recombinant GST tagged JAK2 catalytic domain expressed in baculovirus expression system at 500 nM using Tyr 06 as substrate incubated for 1 hr in presence of ATP at its Km concentration by Z'-LYTE assay relative to control
[9] = target: T2, Testis-specific serine/threonine-protein kinase 2 (Homo sapiens) (UniProt Q96PF2); assay: Inhibition of recombinant full length human His-tagged STK22B expressed in baculovirus expression system at 500 nM using Ser/Thr 04 as substrate incubated for 1 hr in presence of ATP at its Km concentration by Z'-LYTE assay relative to control
T2 sequence (whole entry): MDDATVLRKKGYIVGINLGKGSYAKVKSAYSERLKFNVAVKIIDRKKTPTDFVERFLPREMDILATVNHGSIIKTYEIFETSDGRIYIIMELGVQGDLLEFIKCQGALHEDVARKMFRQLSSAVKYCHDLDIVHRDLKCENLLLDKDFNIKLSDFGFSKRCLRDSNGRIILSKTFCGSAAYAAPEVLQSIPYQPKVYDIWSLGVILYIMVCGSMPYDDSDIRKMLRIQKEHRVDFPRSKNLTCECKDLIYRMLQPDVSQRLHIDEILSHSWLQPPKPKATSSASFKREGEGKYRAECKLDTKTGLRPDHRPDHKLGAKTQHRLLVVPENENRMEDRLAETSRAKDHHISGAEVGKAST

[10] = target: Protein kinase C beta type (Homo sapiens) (UniProt P05771); assay: Inhibition of human full length GST tagged PRKCB1 expressed in insect cells at 500 nM using Ser/Thr 07 as substrate incubated for 1 hr in presence of ATP at its Km concentration by Z'-LYTE assay relative to control
[11] = target: Protein kinase C theta type (Homo sapiens) (UniProt Q04759); assay: Inhibition of recombinant human His-tagged full length PRKCQ expressed in baculovirus expression system at 500 nM using Ser/Thr 07 as substrate incubated for 1 hr in presence of ATP at its Km concentration by Z'-LYTE assay relative to control
[12] = target: Tyrosine-protein kinase SYK (Homo sapiens) (UniProt P43405); assay: Inhibition of recombinant human N-terminal GST-tagged full length SYK expressed in baculovirus expression system at 500 nM using Tyr 02 as substrate incubated for 1 hr in presence of ATP at its Km concentration by Z'-LYTE assay relative to control
[13] = target: T3, Serine/threonine-protein kinase Chk1 (Homo sapiens) (UniProt O14757); assay: Inhibition of recombinant human full-length His-tagged CHEK1 expressed in baculovirus expression system at 500 nM using Ser/Thr 19 peptide as substrate incubated for 1 hr in presence of ATP at its Km concentration by Z'-LYTE assay relative to control
T3 sequence (whole entry): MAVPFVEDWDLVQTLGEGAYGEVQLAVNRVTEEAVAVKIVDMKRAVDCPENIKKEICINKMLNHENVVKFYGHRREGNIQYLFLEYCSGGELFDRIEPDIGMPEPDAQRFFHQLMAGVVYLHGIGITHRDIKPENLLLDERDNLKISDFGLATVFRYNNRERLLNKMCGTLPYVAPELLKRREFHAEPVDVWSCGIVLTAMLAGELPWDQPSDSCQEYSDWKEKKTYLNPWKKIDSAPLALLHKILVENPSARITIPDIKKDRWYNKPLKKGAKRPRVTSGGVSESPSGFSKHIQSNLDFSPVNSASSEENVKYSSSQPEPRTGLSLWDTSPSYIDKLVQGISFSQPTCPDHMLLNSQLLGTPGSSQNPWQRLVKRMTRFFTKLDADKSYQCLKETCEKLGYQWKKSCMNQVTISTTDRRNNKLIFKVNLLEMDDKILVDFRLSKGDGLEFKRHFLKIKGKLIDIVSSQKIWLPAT

Sequence of Mitogen-activated protein kinase 1 (Homo sapiens) (P28482 whole entry): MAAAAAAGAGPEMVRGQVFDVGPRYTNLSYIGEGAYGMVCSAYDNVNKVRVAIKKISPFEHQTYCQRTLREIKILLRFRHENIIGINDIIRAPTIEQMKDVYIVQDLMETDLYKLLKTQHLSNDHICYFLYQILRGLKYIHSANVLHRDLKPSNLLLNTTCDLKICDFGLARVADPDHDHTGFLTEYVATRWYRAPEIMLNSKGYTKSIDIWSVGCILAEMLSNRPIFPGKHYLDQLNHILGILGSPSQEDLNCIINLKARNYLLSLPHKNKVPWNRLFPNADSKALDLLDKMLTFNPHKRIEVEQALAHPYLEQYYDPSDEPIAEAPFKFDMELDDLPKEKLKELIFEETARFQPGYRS
Sequence of Epidermal growth factor receptor (P00533 whole entry): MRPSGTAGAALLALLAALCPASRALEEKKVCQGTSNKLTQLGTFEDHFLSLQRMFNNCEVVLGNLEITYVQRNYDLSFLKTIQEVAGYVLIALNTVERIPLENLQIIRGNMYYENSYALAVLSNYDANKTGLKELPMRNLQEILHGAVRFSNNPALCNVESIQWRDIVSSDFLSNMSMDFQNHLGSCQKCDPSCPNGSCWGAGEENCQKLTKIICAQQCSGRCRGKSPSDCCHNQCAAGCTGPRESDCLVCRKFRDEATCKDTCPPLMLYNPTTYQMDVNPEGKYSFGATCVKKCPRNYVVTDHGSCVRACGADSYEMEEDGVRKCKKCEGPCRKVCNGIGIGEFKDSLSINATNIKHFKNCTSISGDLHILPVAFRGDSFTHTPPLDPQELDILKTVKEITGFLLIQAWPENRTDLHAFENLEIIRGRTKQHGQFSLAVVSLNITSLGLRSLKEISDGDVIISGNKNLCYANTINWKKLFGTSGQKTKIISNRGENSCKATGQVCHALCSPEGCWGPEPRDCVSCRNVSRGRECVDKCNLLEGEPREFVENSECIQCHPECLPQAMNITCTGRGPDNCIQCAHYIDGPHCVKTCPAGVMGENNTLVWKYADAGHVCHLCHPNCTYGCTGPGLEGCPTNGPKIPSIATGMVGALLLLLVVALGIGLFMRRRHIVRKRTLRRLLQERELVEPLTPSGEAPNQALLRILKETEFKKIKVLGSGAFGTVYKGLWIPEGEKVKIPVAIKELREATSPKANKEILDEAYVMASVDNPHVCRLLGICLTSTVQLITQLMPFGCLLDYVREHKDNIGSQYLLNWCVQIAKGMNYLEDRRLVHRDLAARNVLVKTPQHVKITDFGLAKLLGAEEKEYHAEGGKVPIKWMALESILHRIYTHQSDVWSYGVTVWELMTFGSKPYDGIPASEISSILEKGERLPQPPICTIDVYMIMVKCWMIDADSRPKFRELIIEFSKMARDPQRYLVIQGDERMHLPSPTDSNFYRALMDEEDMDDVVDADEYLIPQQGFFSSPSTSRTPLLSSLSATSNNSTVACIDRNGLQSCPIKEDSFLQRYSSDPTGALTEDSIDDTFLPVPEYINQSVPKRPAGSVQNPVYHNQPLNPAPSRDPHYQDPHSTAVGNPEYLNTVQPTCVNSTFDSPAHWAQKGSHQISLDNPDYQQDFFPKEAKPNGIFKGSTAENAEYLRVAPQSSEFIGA
Sequence of Receptor tyrosine-protein kinase erbB-2 (Homo sapiens) (P04626 whole entry, the tested form may be a part): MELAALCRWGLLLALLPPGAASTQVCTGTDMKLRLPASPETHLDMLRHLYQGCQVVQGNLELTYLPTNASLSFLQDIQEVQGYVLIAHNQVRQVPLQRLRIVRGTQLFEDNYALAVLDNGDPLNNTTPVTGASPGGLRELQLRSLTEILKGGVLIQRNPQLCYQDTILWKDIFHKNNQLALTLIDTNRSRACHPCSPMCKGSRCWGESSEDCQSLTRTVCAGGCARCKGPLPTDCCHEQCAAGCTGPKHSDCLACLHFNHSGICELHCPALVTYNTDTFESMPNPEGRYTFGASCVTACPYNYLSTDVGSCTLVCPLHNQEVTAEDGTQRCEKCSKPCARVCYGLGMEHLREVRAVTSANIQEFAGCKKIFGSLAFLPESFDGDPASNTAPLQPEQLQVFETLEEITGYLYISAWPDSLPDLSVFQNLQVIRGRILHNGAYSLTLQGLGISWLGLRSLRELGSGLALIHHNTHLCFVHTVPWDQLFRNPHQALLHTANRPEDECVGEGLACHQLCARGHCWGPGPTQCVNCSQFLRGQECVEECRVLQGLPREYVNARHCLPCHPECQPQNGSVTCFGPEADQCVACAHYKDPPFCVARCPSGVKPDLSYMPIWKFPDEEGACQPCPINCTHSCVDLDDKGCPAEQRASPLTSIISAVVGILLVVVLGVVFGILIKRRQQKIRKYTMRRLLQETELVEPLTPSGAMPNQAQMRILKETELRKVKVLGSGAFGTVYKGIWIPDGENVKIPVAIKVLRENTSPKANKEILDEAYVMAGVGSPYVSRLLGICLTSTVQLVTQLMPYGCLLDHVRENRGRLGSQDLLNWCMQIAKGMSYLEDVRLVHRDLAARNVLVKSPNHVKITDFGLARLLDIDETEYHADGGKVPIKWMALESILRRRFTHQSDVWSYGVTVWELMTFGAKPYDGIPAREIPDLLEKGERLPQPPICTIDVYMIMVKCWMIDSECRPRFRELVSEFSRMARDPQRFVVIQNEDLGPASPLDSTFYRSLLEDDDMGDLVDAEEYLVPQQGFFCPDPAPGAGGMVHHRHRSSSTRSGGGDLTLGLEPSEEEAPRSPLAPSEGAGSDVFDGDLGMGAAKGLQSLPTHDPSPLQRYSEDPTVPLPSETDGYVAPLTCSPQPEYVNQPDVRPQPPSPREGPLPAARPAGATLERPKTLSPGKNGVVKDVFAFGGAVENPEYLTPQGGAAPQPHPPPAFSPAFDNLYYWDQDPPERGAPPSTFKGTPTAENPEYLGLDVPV
Sequence of Tyrosine-protein kinase Lyn (Homo sapiens) (P07948 2-512 limits assumed): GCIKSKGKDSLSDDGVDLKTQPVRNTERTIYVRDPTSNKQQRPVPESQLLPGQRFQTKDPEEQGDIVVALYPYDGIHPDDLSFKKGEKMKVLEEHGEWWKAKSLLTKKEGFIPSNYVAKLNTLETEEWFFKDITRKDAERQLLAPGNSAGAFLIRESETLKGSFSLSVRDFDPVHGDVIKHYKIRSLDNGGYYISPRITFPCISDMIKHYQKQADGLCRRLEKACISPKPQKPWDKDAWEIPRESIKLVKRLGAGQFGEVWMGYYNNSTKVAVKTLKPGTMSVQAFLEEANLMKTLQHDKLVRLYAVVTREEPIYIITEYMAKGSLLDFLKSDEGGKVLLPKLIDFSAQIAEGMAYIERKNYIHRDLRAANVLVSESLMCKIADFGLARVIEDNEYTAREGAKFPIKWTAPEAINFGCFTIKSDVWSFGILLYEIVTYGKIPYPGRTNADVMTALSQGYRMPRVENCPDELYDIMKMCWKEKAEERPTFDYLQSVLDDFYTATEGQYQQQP
Sequence of Protein kinase C beta type (Homo sapiens) (P05771 2-671 limits assumed): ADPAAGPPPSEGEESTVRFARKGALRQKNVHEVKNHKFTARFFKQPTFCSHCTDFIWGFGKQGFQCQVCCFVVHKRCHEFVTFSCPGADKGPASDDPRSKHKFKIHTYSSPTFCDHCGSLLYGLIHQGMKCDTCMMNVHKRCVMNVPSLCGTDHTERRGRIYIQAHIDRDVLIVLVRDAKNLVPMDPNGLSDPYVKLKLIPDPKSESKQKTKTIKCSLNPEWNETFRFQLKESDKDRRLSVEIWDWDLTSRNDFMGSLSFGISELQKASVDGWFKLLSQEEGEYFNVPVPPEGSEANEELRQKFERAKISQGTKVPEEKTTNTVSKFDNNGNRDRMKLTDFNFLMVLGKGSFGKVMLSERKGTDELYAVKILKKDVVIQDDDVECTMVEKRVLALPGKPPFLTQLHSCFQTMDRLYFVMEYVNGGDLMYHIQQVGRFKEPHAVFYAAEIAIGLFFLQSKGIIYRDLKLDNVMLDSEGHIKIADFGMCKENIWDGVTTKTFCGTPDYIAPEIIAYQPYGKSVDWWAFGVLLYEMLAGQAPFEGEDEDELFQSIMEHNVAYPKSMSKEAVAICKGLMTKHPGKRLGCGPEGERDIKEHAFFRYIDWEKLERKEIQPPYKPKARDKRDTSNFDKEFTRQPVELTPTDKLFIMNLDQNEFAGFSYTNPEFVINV
Sequence of Protein kinase C theta type (Homo sapiens) (Q04759 whole entry, looked up): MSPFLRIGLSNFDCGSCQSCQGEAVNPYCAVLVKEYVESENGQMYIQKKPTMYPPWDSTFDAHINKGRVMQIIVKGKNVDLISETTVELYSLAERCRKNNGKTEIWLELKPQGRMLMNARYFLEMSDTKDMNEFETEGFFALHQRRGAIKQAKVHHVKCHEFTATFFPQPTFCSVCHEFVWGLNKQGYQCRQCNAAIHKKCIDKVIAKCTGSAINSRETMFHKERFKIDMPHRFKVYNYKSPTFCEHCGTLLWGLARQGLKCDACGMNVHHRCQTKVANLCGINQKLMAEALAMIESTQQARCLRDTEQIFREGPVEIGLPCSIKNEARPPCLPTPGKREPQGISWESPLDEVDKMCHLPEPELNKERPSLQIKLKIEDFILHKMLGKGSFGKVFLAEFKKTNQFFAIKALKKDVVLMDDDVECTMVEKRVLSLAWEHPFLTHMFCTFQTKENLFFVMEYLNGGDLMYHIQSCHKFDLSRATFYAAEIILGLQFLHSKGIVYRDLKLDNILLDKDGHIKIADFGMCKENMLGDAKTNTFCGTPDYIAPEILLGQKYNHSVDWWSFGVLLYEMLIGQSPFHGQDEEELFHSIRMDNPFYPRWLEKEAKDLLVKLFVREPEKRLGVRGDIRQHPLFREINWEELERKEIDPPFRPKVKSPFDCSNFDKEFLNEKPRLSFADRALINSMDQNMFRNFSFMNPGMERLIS

| Structure (SMILES) | inhibition [1] | IC50 [2] | inhibition [3] | inhibition [4] | inhibition [5] | inhibition [6] | inhibition [7] | inhibition [8] | inhibition [9] | inhibition [10] | inhibition [11] | inhibition [12] | inhibition [13] |
| --- | --- | --- | --- | --- | --- | --- | --- | --- | --- | --- | --- | --- | --- |
| COc1ccccc1-c1cc2c(N[C@H](CO)c3ccccc3)ncnc2[nH]1 | 1% | 0.4 nM | 9% | 50% | 64% | 53% | 52% | 11% | -2% | 8% | 5% | 14% | 3% |
| C#Cc1cccc(Nc2ncnc3cc(OCCOC)c(OCCOC)cc23)c1 [ERLOTINIB] | 7% | – | 20% | – | – | 52% | – | – | – | -2% | -4% | – | -7% |
| OC[C@@H](Nc1ncnc2[nH]c(-c3ccccc3)cc12)c1ccccc1 | 1% | 0.8 nM | 19% | 65% | 60% | 53% | 47% | 34% | -3% | 1% | 12% | 29% | 10% |
| OCC[C@@H](Nc1ncnc2[nH]c(-c3ccccc3)cc12)c1ccccc1 | 5% | 0.5 nM | -3% | 38% | 49% | 36% | 16% | -1% | 7% | 6% | 5% | 5% | – |

Further molecules by falling IC50 [2], results first:

| inhibition [1] | IC50 [2] | inhibition [3] | inhibition [4] | inhibition [5] | inhibition [6] | inhibition [7] | inhibition [8] | inhibition [9] | inhibition [10] | inhibition [11] | inhibition [12] | inhibition [13] | Structure (SMILES) |
| --- | --- | --- | --- | --- | --- | --- | --- | --- | --- | --- | --- | --- | --- |
| 1% | 0.2 nM | -2% | 33% | 44% | 35% | 14% | 11% | 2% | 15% | 2% | 11% | – | CCOc1ccccc1-c1cc2c(N[C@H](CO)c3ccccc3)ncnc2[nH]1 |
| – | 0.1 nM | 3% | 87% | 68% | 58% | 13% | 5% | -6% | 17% | 1% | 21% | – | CN(C)CCNCc1ccc(-c2cc3c(N[C@H](CO)c4ccccc4)ncnc3[nH]2)cc1F |
